Laboratory results from patent publication US5541161A, “Stabilized sulfonate, sulfate, phosphonate and phosphate derivatives of hirudin” (Merrell Pharmaceuticals Inc., priority 1993, dated 1996).
Read-outs that look alike come from different tables or passages of the source. Numbered stars: 1 amine (or outer) side, 2 acyl side, 3 side chain; on linkers, the order of the positions; unused ones are H or OH. Suc = O=C(CCC(=O)[*:2])[*:1]; Pnh(SO3) = not defined here

Target: thrombin (Homo sapiens, UniProt P00734)
Assay: Fibrin-Clot Assay
Assay type: biochemical
[1] = read-out: IC50 Fibrin-Clot Assay
[2] = read-out: IC50 Fibrin-Clot Assay (class symbol)

| Compound | IC50 [1] [µM] | IC50 [2] [µM] |
| --- | --- | --- |
| CC[C@H](C)[C@H](NC(=O)[C@@H]1CCCN1C(=O)[C@H](COS(=O)(=O)O)NC(=O)[C@H](Cc1ccc(O)cc1)NC(=O)CCC(=O)O)C(=O)N1CCC[C@H]1C(=O)N[C@@H](COS(=O)(=O)O)C(=O)N[C@@H](COS(=O)(=O)O)C(=O)N[C@@H](C)C(=O)N[C@@H](CC1CCCCC1)C(=O)N[C@@H](COS(=O)(=O)O)C(=O)O [Example 8, Suc-Tyr-Ser(SO3 H)-Pro-Ile-Pro-Ser(SO3 H)-Ser(SO3 H)-Ala-Cha-Ser(SO3 H)-OH] | 0.21 | < 5 |
| Suc-Tyr(SO3 H)-Glu-Pro-Ile-Pro-Glu-Glu-Ala-Cha-D-Glu-OH [Example 5] | 1.7 | < 5 |
| CC[C@H](C)[C@H](NC(=O)[C@@H]1CCCN1C(=O)[C@H](CCC(=O)O)NC(=O)[C@H](Cc1ccc(NS(=O)(=O)O)cc1)NC(=O)CCC(=O)O)C(=O)N1CCC[C@H]1C(=O)N[C@@H](CCC(=O)O)C(=O)N[C@@H](CCC(=O)O)C(=O)N[C@@H](C)C(=O)N[C@@H](CC1CCCCC1)C(=O)N[C@H](CCC(=O)O)C(=O)O [Example 4, Suc-Phe(pNHSO3 H)-Glu-Pro-Ile-Pro-Glu-Glu-Ala-Cha-D-Glu-OH] | 13 | < 25 |
| Suc-Tyr-Glu-Pro-Ile-Pro-Glu-Glu-Phe(pNHSO3 H)-D-Glu-OH [Example 3] | 0.12 |  |
| Suc-Tyr-Pro-Ile-Pro-Glu-Glu-Ala-Pnh(SO3)-D-Glu-OH (Suc-YPIPEEA-{Pnh(SO3)-dE-OH}; reading uncertain; also: printed as Suc-Tyr-Pro-Ile-Pro-Glu-Glu-Ala-Pnh(SO3)-D-Glu-OH) [Example 1] | 2.5 | < 5 |
| CC[C@H](C)[C@H](NC(=O)[C@@H]1CCCN1C(=O)[C@H](CCC(=O)O)NC(=O)[C@H](Cc1ccc(OS(=O)(=O)O)cc1)NC(=O)CCC(=O)O)C(=O)N1CCC[C@H]1C(=O)N[C@@H](CCC(=O)O)C(=O)N[C@@H](CCC(=O)O)C(=O)N[C@@H](C)C(=O)N[C@@H](Cc1ccc(NS(=O)(=O)O)cc1)C(=O)N[C@H](CCC(=O)O)C(=O)O [Example 2, Suc-TVr(SO3 H)-Glu-Pro-Ile-Pro-Glu-Glu-Ala-Phe(pNHSO3 H)-D-Glu-OH] | 15 | < 25 |
